Read-outs that look alike come from different tables or passages of the source.
Assays:
mice = conditions: in vivo; cited from earlier work
human neuronal α7 nAChR [1] = target: T1, human neuronal α7 nAChR (Homo sapiens, UniProt P36544); format: cell-based
full-length α7 nAChR = full-length α7 nAChR (Homo sapiens, UniProt P36544); format: binding
full-length α4β2 nAChR = full-length α4β2 nAChR (Homo sapiens, UniProt P17787+P43681); format: binding
L-AChBP = L-AChBP (Lymnaea stagnalis, UniProt P58154); format: binding
Chain of L-AChBP (P58154 20-229 limits assumed): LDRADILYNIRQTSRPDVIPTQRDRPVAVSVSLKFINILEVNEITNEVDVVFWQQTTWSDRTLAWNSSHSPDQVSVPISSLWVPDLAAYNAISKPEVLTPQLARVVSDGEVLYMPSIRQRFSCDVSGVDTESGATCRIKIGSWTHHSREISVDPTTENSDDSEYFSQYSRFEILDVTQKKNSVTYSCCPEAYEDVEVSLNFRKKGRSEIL

A-AChBP = A-AChBP (Aplysia californica, UniProt Q8WSF8); format: binding; conditions: for Kd: read-out: Kd/calc
Chain of A-AChBP (Q8WSF8 18-236 limits assumed): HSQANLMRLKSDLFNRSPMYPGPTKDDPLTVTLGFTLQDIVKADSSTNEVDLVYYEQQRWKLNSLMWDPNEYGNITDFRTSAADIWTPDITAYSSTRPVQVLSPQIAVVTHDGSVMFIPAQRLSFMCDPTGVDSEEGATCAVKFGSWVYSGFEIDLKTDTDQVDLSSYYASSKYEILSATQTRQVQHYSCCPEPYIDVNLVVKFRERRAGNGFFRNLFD

human neuronal α7 nAChR [2] = target: T1, human neuronal α7 nAChR; conditions: read-out: IC50, inhibition of ACh-evoked nicotinic currents; cited from earlier work
[3] = target: T2, human neuronal α4β2 nAChR (Homo sapiens, UniProt P17787+P43681); conditions: read-out: IC50, inhibition of ACh-evoked nicotinic currents; cited from earlier work
T2 sequence (P43681 29-627): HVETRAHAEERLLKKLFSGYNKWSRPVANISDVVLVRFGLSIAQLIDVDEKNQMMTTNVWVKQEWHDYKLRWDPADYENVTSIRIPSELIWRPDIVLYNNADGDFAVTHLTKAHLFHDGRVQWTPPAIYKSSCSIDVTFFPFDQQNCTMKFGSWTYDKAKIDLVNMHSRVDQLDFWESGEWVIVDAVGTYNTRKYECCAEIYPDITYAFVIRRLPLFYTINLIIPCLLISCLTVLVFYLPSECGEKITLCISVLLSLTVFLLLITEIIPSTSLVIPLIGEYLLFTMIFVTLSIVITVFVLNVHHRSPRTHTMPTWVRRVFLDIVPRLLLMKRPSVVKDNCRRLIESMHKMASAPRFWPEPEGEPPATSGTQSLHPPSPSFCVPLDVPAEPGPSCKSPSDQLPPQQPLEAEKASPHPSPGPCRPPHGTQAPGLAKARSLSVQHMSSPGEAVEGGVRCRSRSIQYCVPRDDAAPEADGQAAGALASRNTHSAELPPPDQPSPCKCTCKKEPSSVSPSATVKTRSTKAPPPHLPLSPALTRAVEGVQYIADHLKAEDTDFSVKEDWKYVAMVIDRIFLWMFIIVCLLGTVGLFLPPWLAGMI
T2 sequence (P17787 26-502): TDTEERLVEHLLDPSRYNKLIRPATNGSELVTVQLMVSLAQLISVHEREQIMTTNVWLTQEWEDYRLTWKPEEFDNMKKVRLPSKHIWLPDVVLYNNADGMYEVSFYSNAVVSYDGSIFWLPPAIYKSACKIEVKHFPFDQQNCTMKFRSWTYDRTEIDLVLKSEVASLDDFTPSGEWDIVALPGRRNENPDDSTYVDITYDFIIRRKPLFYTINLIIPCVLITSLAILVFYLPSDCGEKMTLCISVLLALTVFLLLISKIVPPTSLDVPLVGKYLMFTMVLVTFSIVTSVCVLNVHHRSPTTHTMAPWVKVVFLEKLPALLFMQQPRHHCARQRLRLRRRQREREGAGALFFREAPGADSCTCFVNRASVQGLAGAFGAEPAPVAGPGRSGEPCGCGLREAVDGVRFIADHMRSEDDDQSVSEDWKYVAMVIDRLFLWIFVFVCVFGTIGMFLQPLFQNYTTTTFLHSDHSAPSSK

[4] = system: muscle-type α1_2βγδ nAChR; conditions: read-out: IC50, inhibition of ACh-evoked nicotinic currents; cited from earlier work
α4β2 nAChR [5] = target: T3, α4β2 nAChR (Homo sapiens, UniProt P17787+P43681); conditions: cited from earlier work
T3 sequence (P43681 29-627): as the sequence (P43681 29-627) above
T3 sequence (P17787 26-502): as the sequence (P17787 26-502) above

α3β2 nAChR [6] = target: T4, α3β2 nAChR (Homo sapiens, UniProt P17787+P32297); conditions: cited from earlier work
T4 sequence (P17787 26-502): as above
T4 sequence (P32297 32-505): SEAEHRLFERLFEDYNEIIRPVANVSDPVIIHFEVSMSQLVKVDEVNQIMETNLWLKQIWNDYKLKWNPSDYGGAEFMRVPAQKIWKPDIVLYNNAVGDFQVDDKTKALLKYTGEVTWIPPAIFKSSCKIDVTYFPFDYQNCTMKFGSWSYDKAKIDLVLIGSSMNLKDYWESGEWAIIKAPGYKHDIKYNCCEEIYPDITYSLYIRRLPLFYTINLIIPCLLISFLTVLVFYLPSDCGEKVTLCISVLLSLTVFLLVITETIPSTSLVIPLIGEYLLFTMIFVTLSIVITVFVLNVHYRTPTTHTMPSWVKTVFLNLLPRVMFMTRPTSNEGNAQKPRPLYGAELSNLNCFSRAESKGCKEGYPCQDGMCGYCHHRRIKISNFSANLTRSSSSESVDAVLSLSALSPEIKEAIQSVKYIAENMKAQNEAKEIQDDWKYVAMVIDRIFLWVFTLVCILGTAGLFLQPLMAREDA

[7] = target: T2, human neuronal α4β2 nAChR; format: cell-based; conditions: read-out: IC50, inhibition of ACh-evoked nicotinic currents
[8] = system: muscle-type α1_2βγδ nAChR; format: cell-based, Torpedo; conditions: read-out: IC50, inhibition of ACh-evoked nicotinic currents
α4β2 nAChR [9] = target: T3, α4β2 nAChR; format: binding
α3β2 nAChR [10] = target: T4, α3β2 nAChR; format: binding
A-AChBP/α7 chimera III = format: binding; conditions: read-out: Kd/equ
[11] = read-out: Kd/equ, competitive component
[12] = read-out: Kd/equ, non-competitive component

Chain of full-length α7 nAChR (P36544 23-502): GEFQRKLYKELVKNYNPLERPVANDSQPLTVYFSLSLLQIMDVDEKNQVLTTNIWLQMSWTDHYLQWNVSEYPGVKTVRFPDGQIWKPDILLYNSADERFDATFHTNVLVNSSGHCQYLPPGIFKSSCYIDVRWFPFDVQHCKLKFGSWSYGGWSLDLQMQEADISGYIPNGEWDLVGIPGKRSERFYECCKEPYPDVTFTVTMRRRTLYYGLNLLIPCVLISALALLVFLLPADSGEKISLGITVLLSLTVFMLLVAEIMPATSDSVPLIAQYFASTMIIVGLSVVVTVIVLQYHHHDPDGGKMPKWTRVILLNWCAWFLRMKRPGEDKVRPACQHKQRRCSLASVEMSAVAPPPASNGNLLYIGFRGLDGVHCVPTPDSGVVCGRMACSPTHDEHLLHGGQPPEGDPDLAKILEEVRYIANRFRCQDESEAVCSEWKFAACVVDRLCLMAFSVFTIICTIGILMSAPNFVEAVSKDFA
T1 sequence (P36544 23-502): as above
Chain of full-length α4β2 nAChR (P17787 26-502): as the sequence (P17787 26-502) above
Chain of full-length α4β2 nAChR (P43681 29-627): as the sequence (P43681 29-627) above

SMILES | Kd (full-length α7 nAChR; [11]) [nM] | Kd (full-length α7 nAChR; [12]) [nM] | Kd (full-length α4β2 nAChR; [11]) [nM] | Kd (full-length α4β2 nAChR; [12]) [nM] | koff (L-AChBP) | kon (L-AChBP) | Kd (L-AChBP; read-out: Kd/calc) [nM] | koff (A-AChBP) | kon (A-AChBP) | Kd (A-AChBP) [nM] | IC50 (human neuronal α7 nAChR [2]) [nM] | also measured
C=C1CCCC2=NC[C@H](C)[C@@H](C)C[C@@]23CCC(C(=O)O)=C[C@@H]3[C@@H]2O[C@]3(C[C@H]4CCC[C@@]5(CC[C@@]6(O[C@@H](CC[C@@]6(C)O)C1)O5)O4)C[C@@H](C)[C@@H](O)[C@H]2O3 [(−)-PnTx-A] |  |  |  |  |  |  |  |  |  |  |  | activity in mouse assays (mice): inactive
C=C1CCCC2=NC[C@H](C)[C@@H](C)C[C@@]23CCC(C(=O)O)=C[C@@H]3[C@@H]2O[C@]3(C[C@H]4CCC[C@@]5(CC[C@@]6(O[C@@H](CC[C@@]6(C)O)C1)O5)O4)C[C@@H](C)[C@@H](O)[C@H]2O3 [PnTx-A, pinnatoxin-A] | 0.18 ± 0.1 | 2.6 ± 1.3 | 95 ± 11 | 199 ± 1 | 31.6 ± 7.9 ^a min^−1 | 0.21 ± 0.09 ^a 10^9 M^−1min^−1 | 170 ± 77 | < 0.06 ^b min^−1 | 1.4 ± 0.7 ^a 10^9 M^−1min^−1 | < 0.05 | 0.107 | greater potency (IC50) toward α7 than α4β2 (human neuronal α7 nAChR [1]): ~ 300 fold; IC50 [3]: 30.4 nM; IC50 [4]: 5.53 nM; Ki (α4β2 nAChR [5]): 15.6 ± 5.2 nM; Ki (α3β2 nAChR [6]): 9.4 ± 1.9 nM
C=CC1=C[C@@H]2[C@@H]3O[C@]4(C[C@H]5CCC[C@@]6(CC[C@@]7(O[C@@H](CC[C@@]7(C)O)CC(=C)CCCC7=NC[C@H](C)[C@@H](C)C[C@@]72CC1)O6)O5)C[C@@H](C)[C@@H](O)[C@H]3O4 [PnTx-G, pinnatoxin-G] | 34 ± 4 | 270 ± 50 | 99 ± 50 | 87 ± 62 | 60 ± 30 ^b min^−1 | 0.17 ± 0.01 ^b 10^9 M^−1min^−1 | 360 ± 210 | 0.78 ± 0.06 ^b min^−1 | 0.91 ± 0.03 ^b 10^9 M^−1min^−1 | 0.86 ± 0.09 | 5.06 | lower potency towards α7 compared with PnTx-A (human neuronal α7 nAChR [1]): ~ 50 fold; IC50 [7]: 4.9 nM; IC50 [8]: 3.82 nM; Ki (α4β2 nAChR [9]): 101 ± 30 nM; Ki (α3β2 nAChR [10]): 63.9 ± 1.2 nM; Kd (L-AChBP; read-out: Kd/equ): 315 nM; Kd (A-AChBP/α7 chimera III): 174 ± 19 nM
